Experimental data from publication PMC12814185, “Receptor-Mediated Shuttling of a D‑Amino Acid Peptide Achieves High Nanomolar Cytosolic Concentrations” (Journal of the American Chemical Society, 2025).
Like-named read-outs stand apart in the source and are kept apart here. Bridges are numbered along the chain shown (N, C = ends). Roman numbers before positions name the chains, in order. Triazole bridges read from a SMILES are 1,4-linked. Where no end group is shown, it is not given here. Side-chain parts run from the residue outwards. [ ]: non-standard residue; d: D form. The star is where a group is joined. X1 = CN1C(=CC=CC=CC2=[N+](CCCCCC(=O)*)c3ccc(S(=O)(=O)[O-])cc3C2(C)C)C(C)(C)c2cc(S(=O)(=O)O)ccc21; Lys(N3) = [N-]=[N+]=NCCCC[C@H](N)C(=O)O; Cit = NC(=O)NCCC[C@H](N)C(=O)O; d(hCys) = N[C@H](CCS)C(=O)O; PEG3 = NCCOCCOCCOCCC(=O)O; Pra = C#CC[C@H](N)C(=O)O

Target: T1, CMKLR1 (Homo sapiens, UniProt Q99788)
T1 construct: expressed in transfected cells; host or cells: COS-7 (stably transfected, CMKLR1-eYFP + Δ6Gαqi4myr)
T1 sequence (Q99788 1-373): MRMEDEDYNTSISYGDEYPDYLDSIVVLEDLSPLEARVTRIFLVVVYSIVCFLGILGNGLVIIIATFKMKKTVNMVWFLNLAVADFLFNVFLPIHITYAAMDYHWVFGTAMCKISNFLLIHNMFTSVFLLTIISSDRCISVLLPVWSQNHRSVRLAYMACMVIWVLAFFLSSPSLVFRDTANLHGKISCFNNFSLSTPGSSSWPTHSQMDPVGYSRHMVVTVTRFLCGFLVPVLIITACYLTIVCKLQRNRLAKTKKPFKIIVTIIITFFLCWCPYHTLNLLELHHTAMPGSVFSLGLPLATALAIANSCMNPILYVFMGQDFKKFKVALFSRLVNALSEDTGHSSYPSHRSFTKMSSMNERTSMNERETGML
Experiment: Ca2+ flux assay in COS-7_CMKLR1-eYFP_Δ6Gαqi4myr cells
Type: cell-based
Details: maximum signal over baseline normalized to peptide 1, at least two independent experiments in duplicate

Substance: I: GSVSHHHHHHGGHHHH[PEG3][dK]([PEG3-X1])[dD][dW][dW][dP][dL][dA][dF][dE][dA][dL][dL][dR]GEV[Cit][PEG3][Pra]-NH2 / II: Ac-[Lys(N3)]YFP[d(hCys)]QFAFC-OH (triazole I:36-II:1; disulfide II:5-II:10) [3Cy]
- EC50 (read-out: EC50): 220 nM
- EC50 (read-out: pEC50 ± SEM (converted)): 219 nM
